The source of these data is ChEMBL document CHEMBL4814070 (Eur J Med Chem, 2021).

Series [1] addresses T1, Glutamate NMDA receptor; GRIN1/GRIN2B (Homo sapiens, UniProt Q05586+Q13224).
Description: Inhibition of human GluN1a/GluN2B receptor expressed in HEK293 cells assessed as inhibition of glycine/glutamate-induced current measured at -60 mV holding potential by whole-cell patch clamp method
In the next series the target is Acetylcholinesterase (Homo sapiens, UniProt P22303).
Series [2] has as its target T2, Cholinesterase (Homo sapiens, UniProt P06276).
Description: Inhibition of human plasmatic BuChE assessed as reduction in cholinesterase activity by Ellman's method
In series [3] the target is T3, Glutamate NMDA receptor; GRIN1/GRIN2A (Homo sapiens, UniProt Q05586+Q12879).
Description: Inhibition of human GluN1a/GluN2A receptor expressed in HEK293 cells assessed as inhibition of glycine/glutamate-induced current measured at -60 mV holding potential by whole-cell patch clamp method
Series [4] addresses T3, Glutamate NMDA receptor; GRIN1/GRIN2A. As to the kind of experiment: Inhibition of human GluN1a/GluN2A receptor expressed in HEK293 cells assessed as relative inhibition of glycine/glutamate-induced current at 100 uM measured at +40 mV holding potential by whole-cell patch clamp method. It is filed as cell-based.
The nature of series [5]: Drug uptake in ICR mouse brain at 5 mg/kg, ip measured after 15 mins by HPLC-MS analysis. It is filed as ADME, organism-based. The note with it: read-out: Drug uptake.
Series [6] is described as follows: Ratio of drug level in brain to plasma in ICR mouse at 5 mg/kg, ip measured after 15 mins by HPLC-MS analysis. It is filed as ADME, organism-based. The note with it: brain and plasma, read-out: BBR.
Series [7] concerns Rattus norvegicus. As to the kind of experiment: Effect on spontaneous locomotory activity in Wistar rat at 1 mg/kg, ip measured for 10 mins by open field test. It is filed as functional, organism-based.
Series [8] in a line: Drug uptake in ICR mouse plasma at 5 mg/kg, ip measured after 60 mins by HPLC-MS analysis. It is filed as ADME, organism-based.
The nature of series [9]: Drug uptake in ICR mouse brain at 5 mg/kg, ip measured after 60 mins by HPLC-MS analysis. It is filed as ADME, organism-based. The note with it: read-out: Drug uptake.
For series [10], the system named is Rattus norvegicus. As to the kind of experiment: Reduction in total distance travelled in Wistar rat at 5 mg/kg, ip measured for 10 mins by open field test relative to control. It is filed as functional, organism-based.
Series [11] in a line: Drug uptake in ICR mouse plasma at 5 mg/kg, ip measured after 15 mins by HPLC-MS analysis. It is filed as ADME, organism-based.
Series [12] addresses T3, Glutamate NMDA receptor; GRIN1/GRIN2A. The source holds these as a separate data set.
Description: Inhibition of human GluN1a/GluN2A receptor expressed in HEK293 cells assessed as relative inhibition of glycine/glutamate-induced current measured at +40 mV holding potential by whole-cell patch clamp method
The target of series [13] is T1, Glutamate NMDA receptor; GRIN1/GRIN2B. This is another data set of the same source.
Description: Inhibition of human GluN1a/GluN2B receptor expressed in HEK293 cells assessed as relative inhibition of glycine/glutamate-induced current measured at +40 mV holding potential by whole-cell patch clamp method
The nature of series [14]: Toxicity in Wistar rat assessed as prepulse inhibition of acoustic startle response at 1 to 5 mg/kg, ip measured for 10 mins by open field test relative to control. The note with it: in vivo, dose 1-5 mg/kg. It is filed as organism-based.
Series [15] addresses T2, Cholinesterase. As to the kind of experiment: Inhibition of human plasmatic BuChE assessed as reduction in cholinesterase activity at 100 uM by Ellman's method.

The source made the active and inactive calls. The calls are words filed in the database; no cut-off is given here.

Acetylcholinesterase, sequence (P22303 whole entry): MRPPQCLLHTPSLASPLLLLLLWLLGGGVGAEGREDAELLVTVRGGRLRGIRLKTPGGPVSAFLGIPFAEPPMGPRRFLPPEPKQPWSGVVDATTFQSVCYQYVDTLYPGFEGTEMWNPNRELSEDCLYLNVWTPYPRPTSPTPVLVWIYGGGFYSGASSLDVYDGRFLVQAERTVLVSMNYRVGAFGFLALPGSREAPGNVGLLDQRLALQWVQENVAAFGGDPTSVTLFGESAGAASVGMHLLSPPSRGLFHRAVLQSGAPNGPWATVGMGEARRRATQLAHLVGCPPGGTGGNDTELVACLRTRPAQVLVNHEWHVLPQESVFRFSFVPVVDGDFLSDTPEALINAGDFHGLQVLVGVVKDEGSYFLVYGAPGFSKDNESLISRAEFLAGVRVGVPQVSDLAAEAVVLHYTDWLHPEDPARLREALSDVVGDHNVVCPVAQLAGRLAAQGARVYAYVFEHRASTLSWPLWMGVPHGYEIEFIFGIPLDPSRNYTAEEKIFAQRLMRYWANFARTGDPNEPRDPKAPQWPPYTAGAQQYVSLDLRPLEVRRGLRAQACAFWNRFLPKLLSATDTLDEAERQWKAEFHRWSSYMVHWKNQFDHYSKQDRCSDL
T1 sequence (Q13224 whole entry, looked up, other chains not shown): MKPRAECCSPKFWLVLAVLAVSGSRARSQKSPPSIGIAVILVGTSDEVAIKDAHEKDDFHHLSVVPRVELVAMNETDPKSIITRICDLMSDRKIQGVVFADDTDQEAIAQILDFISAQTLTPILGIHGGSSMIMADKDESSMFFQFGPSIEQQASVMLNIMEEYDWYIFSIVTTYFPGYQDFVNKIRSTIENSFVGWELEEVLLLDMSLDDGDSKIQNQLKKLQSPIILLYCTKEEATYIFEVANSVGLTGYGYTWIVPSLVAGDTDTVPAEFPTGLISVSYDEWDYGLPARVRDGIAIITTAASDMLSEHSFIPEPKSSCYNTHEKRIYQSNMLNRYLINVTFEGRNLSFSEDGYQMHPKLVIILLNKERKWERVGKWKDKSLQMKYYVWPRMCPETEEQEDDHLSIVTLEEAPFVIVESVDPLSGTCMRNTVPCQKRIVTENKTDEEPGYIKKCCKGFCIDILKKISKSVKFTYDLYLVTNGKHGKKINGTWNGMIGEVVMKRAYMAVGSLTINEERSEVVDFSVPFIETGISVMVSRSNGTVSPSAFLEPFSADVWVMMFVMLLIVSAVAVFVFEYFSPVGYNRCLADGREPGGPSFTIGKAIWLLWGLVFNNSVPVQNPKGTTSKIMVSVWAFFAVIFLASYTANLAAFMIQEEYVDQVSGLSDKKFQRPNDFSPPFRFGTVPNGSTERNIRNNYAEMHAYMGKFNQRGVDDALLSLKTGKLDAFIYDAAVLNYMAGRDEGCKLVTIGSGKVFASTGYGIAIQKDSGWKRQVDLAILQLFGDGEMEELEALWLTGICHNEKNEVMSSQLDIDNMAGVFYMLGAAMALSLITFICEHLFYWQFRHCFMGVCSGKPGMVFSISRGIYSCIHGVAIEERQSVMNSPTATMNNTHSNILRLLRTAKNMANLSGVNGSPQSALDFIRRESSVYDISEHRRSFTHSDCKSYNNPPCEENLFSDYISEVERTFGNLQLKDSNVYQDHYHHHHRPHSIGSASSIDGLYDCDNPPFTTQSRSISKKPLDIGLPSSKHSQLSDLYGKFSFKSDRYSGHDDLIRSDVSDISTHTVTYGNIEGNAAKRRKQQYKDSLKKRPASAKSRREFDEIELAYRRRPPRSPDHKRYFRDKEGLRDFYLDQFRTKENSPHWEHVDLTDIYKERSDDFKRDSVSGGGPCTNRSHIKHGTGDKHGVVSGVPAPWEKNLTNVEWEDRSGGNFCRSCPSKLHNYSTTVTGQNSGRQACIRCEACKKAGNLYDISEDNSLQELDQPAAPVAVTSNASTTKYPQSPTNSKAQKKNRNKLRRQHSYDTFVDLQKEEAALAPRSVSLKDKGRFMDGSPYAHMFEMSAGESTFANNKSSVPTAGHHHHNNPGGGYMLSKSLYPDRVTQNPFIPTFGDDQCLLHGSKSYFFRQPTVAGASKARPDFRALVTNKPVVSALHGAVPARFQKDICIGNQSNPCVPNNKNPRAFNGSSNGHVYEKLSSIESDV
T2 sequence (P06276 whole entry): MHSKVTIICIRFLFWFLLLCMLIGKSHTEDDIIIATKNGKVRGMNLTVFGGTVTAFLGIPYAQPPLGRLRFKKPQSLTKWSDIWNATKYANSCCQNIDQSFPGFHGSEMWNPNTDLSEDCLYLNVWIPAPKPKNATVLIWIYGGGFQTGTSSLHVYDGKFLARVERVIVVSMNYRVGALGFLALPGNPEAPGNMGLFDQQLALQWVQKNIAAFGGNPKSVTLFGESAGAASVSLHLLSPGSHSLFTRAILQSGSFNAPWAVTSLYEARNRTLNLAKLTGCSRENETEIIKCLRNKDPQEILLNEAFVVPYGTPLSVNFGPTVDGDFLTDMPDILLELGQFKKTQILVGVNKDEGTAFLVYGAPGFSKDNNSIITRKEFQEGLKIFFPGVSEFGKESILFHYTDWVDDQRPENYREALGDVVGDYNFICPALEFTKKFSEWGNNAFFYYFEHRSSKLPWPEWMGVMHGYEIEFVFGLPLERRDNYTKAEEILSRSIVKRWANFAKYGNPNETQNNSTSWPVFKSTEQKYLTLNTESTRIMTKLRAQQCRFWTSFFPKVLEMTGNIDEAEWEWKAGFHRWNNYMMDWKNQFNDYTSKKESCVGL
Description for Acetylcholinesterase: Inhibition of human recombinant AChE assessed as reduction in cholinesterase activity using acetylthiocholine iodide as substrate by Ellman's method

Turning to `Nc1c2c(nc3c(Br)cc(Br)cc13)CCCC2`, the IC50 (commonly the concentration that gives 50% inhibition) in series [1] was 18.7 µM; against Acetylcholinesterase, 5.18 µM; against Cholinesterase [2], 32 µM; in [3], 15.6 µM. Moreover, the inhibition (as a rule, the share of the control response that was lost under treatment) in series [4] stood at 67.7%.
The corresponding values for `Cc1ccc2nc3c(c(N)c2c1)CCC3` are 19.8 µM, 10 µM, 23.7 µM, 20.5 µM and 30.8%.
The corresponding values for `Cc1ccc2c(N)c3c(nc2c1)CCCCC3` are 9.29 µM, 0.104 µM, 1 µM, 15.2 µM and 50%.
Regarding `Cc1cccc2nc3c(c(N)c12)CCCC3`, the IC50 in [1] was 14.2 µM; at Acetylcholinesterase, 0.125 µM; on Cholinesterase [2] it was 0.495 µM; in [3], 18.5 µM. Further, the inhibition in series [4] amounted to 40.5%.
The corresponding values for `Nc1c2c(nc3ccc(Cl)cc13)CCCC2` are 9.82 µM, 1.94 µM, 6.72 µM, 14.8 µM and 47.5%.
For `Nc1c2c(nc3c(Br)cc(Br)cc13)CCCCC2`, the IC50 was 26.9 µM in series [1], 15.1 µM against Acetylcholinesterase, 89.9 µM against Cholinesterase [2] and 21.5 µM in series [3]. Also, the inhibition in [4] stood at 80.7%.
The corresponding values for `Cc1cccc2nc3c(c(N)c12)CCC3` are 16.6 µM, 0.415 µM, 0.471 µM, 21.3 µM and 22%.
Taken in the same sequence, the figures for `Nc1c2c(nc3c(Cl)cc(Cl)cc13)CCCCC2` were 37.9 µM, 9.04 µM, 23.8 µM, 20 µM and 38.5%.
For the compound `Nc1c2c(nc3ccc(F)cc13)CCCCC2`, the IC50 amounted to 19.8 µM in series [1], 0.624 µM against Acetylcholinesterase, 0.569 µM on Cholinesterase [2] and 14.5 µM in [3]. Further, the inhibition in series [4] turned out to be 38.5%.
Regarding `Nc1c2c(nc3c(Cl)cc(Cl)cc13)CCC2`, the IC50 in [1] amounted to 21.4 µM; against Acetylcholinesterase, 13.1 µM; at Cholinesterase [2] it was 17.9 µM; in [3], 14.6 µM. In series [4], the inhibition is 33.5%.
On to `Cc1ccc2c(N)c3c(nc2c1)CCC3`, for which the IC50 worked out at 15.6 µM in series [1], 0.347 µM on Acetylcholinesterase, 8.44 µM against Cholinesterase [2] and 7.68 µM in series [3]. Besides, the inhibition in series [4] was found to be 53.6%.
The corresponding values for `Nc1c2c(nc3ccc(Cl)cc13)CCCCC2` are 12 µM, 8.6 µM, 10.3 µM, 20.2 µM and 43%.
For `COc1ccc2nc3c(c(N)c2c1)CCCCC3`, the half-inhibitory concentration (IC50) in series [1] is 7.67 µM; at Acetylcholinesterase, 17.6 µM; at Cholinesterase [2], 4.41 µM; in series [3], 20 µM. Moreover, the inhibition in series [4] was 53.6%.
Taken in the same sequence, the figures for `Nc1c2c(nc3ccc(F)cc13)CCC2` were 30.3 µM, 0.662 µM, 1.91 µM, 28 µM and 28.7%.
Consider `Cl.Nc1c2c(nc3ccc(Br)cc13)CCC2`, for which the concentration at 0.25 h is 1180 nM in [5] and 2520 nM in series [11]. In addition, in series [6], the Kp at 0.25 h was found to be 47. For the same compound, in the series with Rattus norvegicus [7], the result was inactive. Moreover, the concentration for half-maximal inhibition (IC50) came to 6.9 µM in [1]; 5.69 µM on Acetylcholinesterase; 16.9 µM against Cholinesterase [2]; 51.3 µM in [12]; 6.12 µM in series [3]; 23 µM in [13]. The values for the concentration at 1 h in series [8] and in [9] were 154 nM and 116 nM, respectively. In addition, the result in the series on Rattus norvegicus [10] was Active. The inhibition in series [4] is 75.3%. Moreover, in series [14], the Activity result is “Non-Toxic”.
On to `Nc1c2c(nc3cccc(Cl)c13)CCC2`, for which the IC50 in series [1] was 44.9 µM; in [3] it was 27 µM. The inhibition in [4] was found to be 24.5%; at Cholinesterase [15] it was 6%.
Regarding `Nc1c2c(nc3ccc(F)cc13)CCCC2`, the IC50 was found to be 21.3 µM in series [1], 0.978 µM against Acetylcholinesterase, 0.751 µM against Cholinesterase [2] and 15.4 µM in [3]. For the same compound, the inhibition in series [4] is 41.9%.
Consider `Cl.Nc1c2c(nc3ccc(Cl)cc13)CCC2`, for which the concentration at 0.25 h in series [5] is 1000 nM; in series [11], 1660 nM. Also, the Kp at 0.25 h in series [6] came out at 61. In the series on Rattus norvegicus [7], the outcome was inactive. For the same compound, the IC50 in series [1] stood at 8.69 µM; on Acetylcholinesterase, 1.58 µM; against Cholinesterase [2], 6.88 µM; in series [12], 84.2 µM; in [3] it was 21 µM; in series [13], 27.7 µM. Further, the concentration at 1 h in [8] is 389 nM; in series [9] it was 173 nM. In addition, the outcome in the series on Rattus norvegicus [10] was Active. The inhibition in [4] was determined as 56.5%. In series [14], the Activity entry is reported as “Non-Toxic”.
Turning to `COc1ccc2nc3c(c(N)c2c1)CCC3`, the IC50 in series [1] came to 14.6 µM; on Acetylcholinesterase, 8.22 µM; against Cholinesterase [2] it was 10.6 µM; in series [12] it was 66.8 µM; in series [3], 4.16 µM; in [13], 88.9 µM. Besides, the inhibition in series [4] was determined as 66.1%.
With `COc1ccc2nc3c(c(N)c2c1)CCCC3.Cl`, the figures for the concentration at 0.25 h in [5] and in series [11] were 2320 nM and 1670 nM, respectively. The IC50 stood at 7.24 µM in series [1], 49.3 µM in [12], 4.7 µM in series [3] and 51 µM in series [13]. In addition, the concentration at 1 h in [8] was 207 nM; in series [9] it was 326 nM. The inhibition in [4] amounted to 77.6%.
Regarding `Nc1c2c(nc3cccc(Cl)c13)CCCC2`, the IC50 amounted to 23.7 µM in series [1], 0.0334 µM against Acetylcholinesterase, 0.062 µM against Cholinesterase [2] and 19.6 µM in series [3]. Besides, in series [4], the inhibition turned out to be 35%.
The corresponding values for `Nc1c2c(nc3c(Cl)cc(Cl)cc13)CCCC2` are 37.1 µM, 4.34 µM, 14.8 µM, 24 µM and 38.2%.
`Cl.Nc1c2c(nc3ccc(Br)cc13)CCCC2`: the concentration at 0.25 h amounted to 1380 nM in [5] and 1330 nM in series [11]. Also, in series [6], the Kp at 0.25 h came out at 103. In addition, the result in the series on Rattus norvegicus [7] was inactive. Further, the concentration for half-maximal inhibition (IC50) came out at 7.8 µM in series [1]; 4.79 µM against Acetylcholinesterase; 20.8 µM against Cholinesterase [2]; 45.9 µM in series [12]; 6.58 µM in [3]; 12.8 µM in series [13]. For the same compound, the values for the concentration at 1 h in series [8] and in series [9] were 170 nM and 218 nM, respectively. Also, the result in the series on Rattus norvegicus [10] was Active. Moreover, in series [4], the inhibition came out at 79.3%. Also, the Activity result in series [14] is “Non-Toxic”.
For `Nc1c2c(nc3ccc(Br)cc13)CCCCC2`, the IC50 in series [1] came out at 11.8 µM; against Acetylcholinesterase, 13.8 µM; against Cholinesterase [2] it was 15.1 µM; in series [3] it was 13.8 µM. Moreover, the inhibition in series [4] worked out at 57.7%.
Regarding `Cc1cccc2nc3c(c(N)c12)CCCCC3`, the IC50 in [1] was 17.4 µM; against Acetylcholinesterase, 0.255 µM; on Cholinesterase [2] it was 0.107 µM; in [3] it was 12.6 µM. In addition, in series [4], the inhibition amounted to 54.3%.
With `Cc1ccc2nc3c(c(N)c2c1)CCCCC3`, the IC50 in series [1] stood at 16.6 µM; on Acetylcholinesterase it was 22.5 µM; against Cholinesterase [2], 10.6 µM; in series [3], 27.1 µM. The inhibition in [4] stood at 40.1%.
`Cc1ccc2nc3c(c(N)c2c1)CCCC3`: the IC50 was 13.2 µM in series [1], 15.5 µM on Acetylcholinesterase, 13.7 µM at Cholinesterase [2] and 12.3 µM in [3]. In addition, the inhibition in series [4] turned out to be 18.5%.
For `Cc1ccc2c(N)c3c(nc2c1)CCCC3.Cl`, the concentration at 0.25 h was 731 nM in [5] and 1300 nM in [11]. In series [6], the Kp at 0.25 h worked out at 56. Moreover, the outcome with Rattus norvegicus [7] was inactive. Moreover, the half-maximal inhibitory concentration (IC50) in series [1] turned out to be 7.83 µM; against Acetylcholinesterase it was 0.072 µM; at Cholinesterase [2], 2.9 µM; in series [12], 98.6 µM; in series [3] it was 17 µM; in [13], 41.8 µM. For the same compound, the concentration at 1 h worked out at 87 nM in series [8] and 251 nM in series [9]. Also, the outcome in the series on Rattus norvegicus [10] was Active. Also, in [4], the inhibition was determined as 51.3%. In addition, the Activity entry in series [14] was “Non-Toxic”.
Regarding `Nc1c2c(nc3c(Br)cc(Br)cc13)CCC2`, the figures for the IC50 (in series [1]; on Acetylcholinesterase; in series [3]) were 17.1 µM, 15.1 µM and 10.2 µM, respectively. For the same compound, the inhibition in series [4] was determined as 55.7%; at Cholinesterase [15], 34%.
